Measured values from ChEMBL document CHEMBL1146789, “(+/-)8-Amino-5,6,7,8-tetrahydroisoquinolines as novel antinociceptive agents” (Bioorg Med Chem Lett, 2004).
Calls of active or inactive are those of the source. The rule behind the calls is not given here.

Assays:
[1] = molecular target: T1, Neuronal acetylcholine receptor; alpha4/beta2 (Homo sapiens, UniProt P17787+P43681); assay: Affinity for nicotinic acetylcholine receptor alpha4-beta2; NA = Not active; format: protein-complex assay
Mus musculus [2] = organism: Mus musculus; assay: Antinociceptive action was determined; P- Possess activity; format: functional, organism-based
Mus musculus [3] = assay: Antinociceptive action was determined by tail-flick assay in mouse administered intrathecally; format: functional; conditions: central
Mus musculus [4] = assay: Antinociceptive action was determined by hotplate assay in mouse administered subcutaneously; format: functional; conditions: sc
Mus musculus [5] = assay: Antinociceptive action was determined by tail-flick assay in mouse administered subcutaneously; format: functional; conditions: sc
[6] = molecular target: T1, Neuronal acetylcholine receptor; alpha4/beta2; assay: Affinity for nicotinic acetylcholine receptor alpha4-beta2; format: protein-complex assay
Mus musculus [7] = assay: Antinociceptive action was determined by hotplate assay in mouse administered subcutaneously at a dose of 10 mg/kg; format: functional; conditions: route subcutaneous
Mus musculus [8] = assay: Antinociceptive action was determined by tail-flick assay in mouse administered subcutaneously at a dose of 10 mg/kg; format: functional; conditions: route subcutaneous
Mus musculus [9] = assay: Antinociceptive action was determined by tail-flick assay in mouse administered intrathecally at a dose of 20-25 ug; format: functional
[10] = molecular target: Muscarinic acetylcholine receptor M5 (Homo sapiens, UniProt P08912); assay: Affinity towards human Muscarinic acetylcholine receptor M5
[11] = molecular target: 5-hydroxytryptamine receptor 2C (Homo sapiens, UniProt P28335); assay: Affinity towards human 5-hydroxytryptamine 2C serotonin receptor
Mu-type opioid receptor = Mu-type opioid receptor (Homo sapiens, UniProt P35372); assay: Affinity towards opioid receptor mu 1
D(2) dopamine receptor = D(2) dopamine receptor (Homo sapiens, UniProt P14416); assay: Affinity towards human dopamine receptor D2
[12] = molecular target: 5-hydroxytryptamine receptor 6 (Homo sapiens, UniProt P50406); assay: Affinity towards human 5-hydroxytryptamine 6 serotonin receptor
[13] = molecular target: A-type voltage-gated potassium channel KCND3 (Homo sapiens, UniProt Q9UK17); assay: Binding towards potassium channel(K+); NA = Not active
[14] = molecular target: Adrenergic receptor alpha-1 (Homo sapiens, UniProt P35348+P25100+P35368); assay: Affinity towards alpha-1 adrenergic receptor; format: protein assay
[15] = molecular target: Sodium-dependent noradrenaline transporter (Homo sapiens) (UniProt P23975); assay: Binding towards norepinephrine transporter; NA= Not active
[16] = molecular target: Adrenergic receptor alpha-2 (Homo sapiens, UniProt P08913+P18825+P18089); assay: Affinity towards alpha-2 adrenergic receptor; format: protein assay
D(4) dopamine receptor = D(4) dopamine receptor (Homo sapiens, UniProt P21917); assay: Affinity towards human dopamine receptor D4
[17] = molecular target: 5-hydroxytryptamine receptor 7 (Homo sapiens, UniProt P34969); assay: Affinity towards human 5-hydroxytryptamine 7 serotonin receptor
[18] = molecular target: Muscarinic acetylcholine receptor M2 (Homo sapiens, UniProt P08172); assay: Affinity towards human muscarinic acetylcholine receptor M2
[19] = molecular target: Serotonin 3 (5-HT3) receptor; assay: Affinity towards human 5-hydroxytryptamine 3 serotonin receptor; format: protein-complex assay
[20] = molecular target: 5-hydroxytryptamine receptor 1A (Homo sapiens, UniProt P08908); assay: Affinity towards human 5-hydroxytryptamine 1A serotonin receptor
[21] = molecular target: Beta-2 adrenergic receptor (Homo sapiens, UniProt P07550); assay: Affinity towards human beta-2 adrenergic receptor
[22] = molecular target: Muscarinic acetylcholine receptor M1 (Homo sapiens, UniProt P11229); assay: Affinity towards human muscarinic acetylcholine receptor M1
[23] = molecular target: 5-hydroxytryptamine receptor 5A (Homo sapiens, UniProt P47898); assay: Affinity towards human 5-hydroxytryptamine 5A serotonin receptor
[24] = molecular target: Kappa-type opioid receptor (Homo sapiens, UniProt P41145); assay: Affinity towards kappa opioid receptor
D(3) dopamine receptor = D(3) dopamine receptor (Homo sapiens, UniProt P35462); assay: Affinity towards human dopamine receptor D3
D(1B) dopamine receptor = D(1B) dopamine receptor (Homo sapiens, UniProt P21918); assay: Affinity towards human dopamine receptor D5
[25] = molecular target: 5-hydroxytryptamine receptor 2B (Homo sapiens, UniProt P41595); assay: Affinity towards human 5-hydroxytryptamine 2B serotonin receptor
[26] = molecular target: 5-hydroxytryptamine receptor 1B (Homo sapiens, UniProt P28222); assay: Affinity towards human 5-hydroxytryptamine 1B serotonin receptor
[27] = molecular target: Muscarinic acetylcholine receptor M3 (Homo sapiens, UniProt P20309); assay: Affinity towards human muscarinic acetylcholine receptor M3
Histamine H1 receptor = Histamine H1 receptor (Homo sapiens, UniProt P35367); assay: Affinity towards histamine H1 receptor
Histamine H2 receptor = Histamine H2 receptor (Homo sapiens, UniProt P25021); assay: Affinity towards histamine H2 receptor
[28] = Binding towards calcium channel(Ca++); NA- Not active
Adenosine receptor A3 = Adenosine receptor A3 (Homo sapiens, UniProt P0DMS8); assay: Affinity towards human adenosine A3 receptor
Adenosine A2 receptor = Adenosine A2 receptor (Homo sapiens, UniProt P29275+P29274); assay: Affinity towards human adenosine A2 receptor; format: protein assay
[29] = Binding towards sodium channel(Na+); NA = Not active
[30] = Binding towards chloride channel(Cl-); NA = Not active
[31] = molecular target: Delta-type opioid receptor (Homo sapiens, UniProt P41143); assay: Affinity towards opioid receptor delta 1
Translocator protein = Translocator protein (Homo sapiens, UniProt P30536); assay: Binding affinity for peripheral benzodiazepine receptor
Adenosine receptor A1 = Adenosine receptor A1 (Homo sapiens, UniProt P30542); assay: Affinity towards human adenosine A1 receptor
D(1A) dopamine receptor = D(1A) dopamine receptor (Homo sapiens, UniProt P21728); assay: Affinity towards human Dopamine receptor D1
[32] = molecular target: Muscarinic acetylcholine receptor M4 (Homo sapiens, UniProt P08173); assay: Affinity towards human Muscarinic acetylcholine receptor M4
[33] = molecular target: GABA-A receptor; anion channel; assay: Binding affinity for GABA-A central benzodiazepine receptor; format: protein-complex assay
[34] = molecular target: Sodium-dependent dopamine transporter (Homo sapiens) (UniProt Q01959); assay: Binding towards dopamine transporter; NA- Not active
Sequence of Sodium-dependent dopamine transporter (Homo sapiens) (Q01959 whole entry): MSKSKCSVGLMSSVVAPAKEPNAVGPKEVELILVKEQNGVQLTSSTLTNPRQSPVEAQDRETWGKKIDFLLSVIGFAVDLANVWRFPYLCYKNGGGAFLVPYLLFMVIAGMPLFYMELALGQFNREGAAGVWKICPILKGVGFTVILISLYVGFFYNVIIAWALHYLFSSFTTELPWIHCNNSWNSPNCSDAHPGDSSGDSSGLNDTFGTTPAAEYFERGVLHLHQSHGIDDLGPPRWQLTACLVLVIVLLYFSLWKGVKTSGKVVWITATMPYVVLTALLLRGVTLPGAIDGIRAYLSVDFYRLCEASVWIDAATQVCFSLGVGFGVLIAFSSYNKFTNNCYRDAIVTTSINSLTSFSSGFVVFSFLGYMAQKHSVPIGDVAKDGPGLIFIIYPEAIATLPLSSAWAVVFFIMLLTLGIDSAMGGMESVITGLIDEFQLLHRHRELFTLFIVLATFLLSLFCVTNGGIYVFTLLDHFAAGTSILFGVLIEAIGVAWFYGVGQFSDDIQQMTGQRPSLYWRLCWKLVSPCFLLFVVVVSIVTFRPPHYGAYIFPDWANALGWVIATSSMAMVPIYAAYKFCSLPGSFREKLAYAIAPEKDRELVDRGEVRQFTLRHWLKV

T1 sequence (P17787 whole entry): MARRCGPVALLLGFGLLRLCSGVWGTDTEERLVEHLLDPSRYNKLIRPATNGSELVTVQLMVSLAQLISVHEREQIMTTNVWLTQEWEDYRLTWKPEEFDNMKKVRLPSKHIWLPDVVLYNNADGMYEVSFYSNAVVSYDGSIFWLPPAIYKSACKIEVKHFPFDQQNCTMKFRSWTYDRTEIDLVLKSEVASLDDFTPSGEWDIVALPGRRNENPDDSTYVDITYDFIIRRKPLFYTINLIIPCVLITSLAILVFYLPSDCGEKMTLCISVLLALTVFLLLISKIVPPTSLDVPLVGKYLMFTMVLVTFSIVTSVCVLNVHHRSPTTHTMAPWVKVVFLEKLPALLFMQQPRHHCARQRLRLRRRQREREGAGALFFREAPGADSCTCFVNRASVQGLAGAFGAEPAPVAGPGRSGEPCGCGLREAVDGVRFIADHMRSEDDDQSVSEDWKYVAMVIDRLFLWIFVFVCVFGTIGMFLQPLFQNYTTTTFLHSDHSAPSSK
T1 sequence (P43681 whole entry): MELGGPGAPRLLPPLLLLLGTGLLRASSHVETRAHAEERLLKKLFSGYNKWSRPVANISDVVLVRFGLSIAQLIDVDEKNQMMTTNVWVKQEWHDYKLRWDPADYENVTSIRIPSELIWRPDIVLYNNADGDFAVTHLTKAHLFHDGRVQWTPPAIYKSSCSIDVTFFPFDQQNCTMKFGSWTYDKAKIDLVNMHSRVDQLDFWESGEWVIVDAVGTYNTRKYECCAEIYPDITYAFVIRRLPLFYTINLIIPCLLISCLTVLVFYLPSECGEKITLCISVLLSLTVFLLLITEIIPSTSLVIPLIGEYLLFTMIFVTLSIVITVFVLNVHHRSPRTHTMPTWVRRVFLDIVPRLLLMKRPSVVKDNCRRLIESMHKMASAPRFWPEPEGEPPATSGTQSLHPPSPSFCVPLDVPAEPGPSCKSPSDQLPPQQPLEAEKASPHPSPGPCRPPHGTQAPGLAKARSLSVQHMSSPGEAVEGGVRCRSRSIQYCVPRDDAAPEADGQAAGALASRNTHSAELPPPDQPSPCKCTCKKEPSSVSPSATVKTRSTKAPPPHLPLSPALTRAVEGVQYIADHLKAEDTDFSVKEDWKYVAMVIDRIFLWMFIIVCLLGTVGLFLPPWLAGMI
Sequence of Kappa-type opioid receptor (P41145 whole entry): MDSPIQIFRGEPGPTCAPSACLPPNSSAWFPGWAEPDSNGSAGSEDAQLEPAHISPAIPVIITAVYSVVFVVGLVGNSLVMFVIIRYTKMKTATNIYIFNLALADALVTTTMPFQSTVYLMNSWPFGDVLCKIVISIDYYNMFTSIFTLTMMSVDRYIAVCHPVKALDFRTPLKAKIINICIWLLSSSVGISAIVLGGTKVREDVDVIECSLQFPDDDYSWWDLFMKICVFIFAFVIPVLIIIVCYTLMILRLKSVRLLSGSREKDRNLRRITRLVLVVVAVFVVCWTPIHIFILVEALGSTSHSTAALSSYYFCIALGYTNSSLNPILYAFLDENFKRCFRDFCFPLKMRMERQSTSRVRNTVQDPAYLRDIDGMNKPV
Sequence of Histamine H2 receptor (P25021 whole entry): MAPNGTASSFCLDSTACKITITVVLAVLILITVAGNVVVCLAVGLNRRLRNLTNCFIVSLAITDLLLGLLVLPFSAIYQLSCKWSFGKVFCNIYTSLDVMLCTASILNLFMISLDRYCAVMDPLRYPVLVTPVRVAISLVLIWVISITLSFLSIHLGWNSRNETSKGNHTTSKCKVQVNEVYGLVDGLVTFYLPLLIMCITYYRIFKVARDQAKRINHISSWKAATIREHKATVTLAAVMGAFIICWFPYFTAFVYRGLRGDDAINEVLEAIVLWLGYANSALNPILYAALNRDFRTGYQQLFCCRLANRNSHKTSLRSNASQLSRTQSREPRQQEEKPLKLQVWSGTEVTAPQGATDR
Sequence of 5-hydroxytryptamine receptor 1B (P28222 whole entry): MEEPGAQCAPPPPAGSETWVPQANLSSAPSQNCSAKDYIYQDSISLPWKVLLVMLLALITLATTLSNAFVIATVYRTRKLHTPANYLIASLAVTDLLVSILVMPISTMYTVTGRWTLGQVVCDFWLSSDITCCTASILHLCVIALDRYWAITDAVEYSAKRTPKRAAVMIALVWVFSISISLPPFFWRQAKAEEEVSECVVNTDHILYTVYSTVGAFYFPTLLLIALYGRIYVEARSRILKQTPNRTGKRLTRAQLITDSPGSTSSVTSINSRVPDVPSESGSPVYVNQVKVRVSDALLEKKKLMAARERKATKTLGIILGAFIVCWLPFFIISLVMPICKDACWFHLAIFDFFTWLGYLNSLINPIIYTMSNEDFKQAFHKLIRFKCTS
Sequence of D(1A) dopamine receptor (P21728 whole entry): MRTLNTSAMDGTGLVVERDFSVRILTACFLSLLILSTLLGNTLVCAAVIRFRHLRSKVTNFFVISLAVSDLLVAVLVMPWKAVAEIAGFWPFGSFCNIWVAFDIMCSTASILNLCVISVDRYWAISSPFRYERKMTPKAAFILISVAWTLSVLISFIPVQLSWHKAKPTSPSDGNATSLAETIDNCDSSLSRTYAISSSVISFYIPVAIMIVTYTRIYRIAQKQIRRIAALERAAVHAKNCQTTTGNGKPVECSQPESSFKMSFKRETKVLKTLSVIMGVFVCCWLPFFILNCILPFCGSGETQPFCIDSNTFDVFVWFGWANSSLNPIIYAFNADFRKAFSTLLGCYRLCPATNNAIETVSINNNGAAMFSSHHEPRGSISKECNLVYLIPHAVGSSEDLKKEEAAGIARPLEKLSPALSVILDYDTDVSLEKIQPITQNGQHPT
Sequence of Beta-2 adrenergic receptor (P07550 whole entry): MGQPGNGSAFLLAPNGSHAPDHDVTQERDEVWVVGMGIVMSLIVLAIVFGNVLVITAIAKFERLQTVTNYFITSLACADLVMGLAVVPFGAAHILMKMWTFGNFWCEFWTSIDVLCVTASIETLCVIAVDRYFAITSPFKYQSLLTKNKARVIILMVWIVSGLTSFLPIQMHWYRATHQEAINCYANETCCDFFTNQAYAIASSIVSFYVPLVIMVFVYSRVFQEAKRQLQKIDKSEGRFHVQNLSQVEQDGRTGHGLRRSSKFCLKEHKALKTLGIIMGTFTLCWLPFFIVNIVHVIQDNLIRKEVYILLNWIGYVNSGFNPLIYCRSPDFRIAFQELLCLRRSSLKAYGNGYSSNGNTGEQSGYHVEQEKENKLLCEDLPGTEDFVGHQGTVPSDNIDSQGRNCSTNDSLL
Sequence of 5-hydroxytryptamine receptor 1A (P08908 whole entry): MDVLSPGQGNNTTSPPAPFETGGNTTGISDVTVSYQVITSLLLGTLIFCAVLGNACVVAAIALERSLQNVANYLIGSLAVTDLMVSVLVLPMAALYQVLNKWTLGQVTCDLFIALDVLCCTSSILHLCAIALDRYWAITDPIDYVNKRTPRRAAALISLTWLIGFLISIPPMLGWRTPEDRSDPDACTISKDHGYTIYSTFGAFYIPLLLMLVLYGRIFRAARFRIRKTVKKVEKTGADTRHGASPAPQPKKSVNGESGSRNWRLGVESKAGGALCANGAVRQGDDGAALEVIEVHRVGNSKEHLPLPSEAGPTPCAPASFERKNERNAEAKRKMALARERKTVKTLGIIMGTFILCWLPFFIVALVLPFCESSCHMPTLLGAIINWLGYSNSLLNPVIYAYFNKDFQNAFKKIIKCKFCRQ
Sequence of Delta-type opioid receptor (P41143 whole entry): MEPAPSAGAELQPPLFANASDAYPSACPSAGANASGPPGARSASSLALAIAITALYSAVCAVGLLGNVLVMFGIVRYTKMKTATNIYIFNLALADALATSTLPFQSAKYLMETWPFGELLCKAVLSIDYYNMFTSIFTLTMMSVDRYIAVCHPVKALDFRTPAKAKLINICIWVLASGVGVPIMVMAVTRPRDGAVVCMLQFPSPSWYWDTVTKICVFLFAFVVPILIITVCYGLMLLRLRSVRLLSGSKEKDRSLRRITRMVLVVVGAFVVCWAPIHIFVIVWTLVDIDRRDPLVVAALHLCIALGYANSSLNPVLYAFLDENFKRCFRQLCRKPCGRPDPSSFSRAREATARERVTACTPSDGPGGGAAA
Sequence of Mu-type opioid receptor (P35372 whole entry): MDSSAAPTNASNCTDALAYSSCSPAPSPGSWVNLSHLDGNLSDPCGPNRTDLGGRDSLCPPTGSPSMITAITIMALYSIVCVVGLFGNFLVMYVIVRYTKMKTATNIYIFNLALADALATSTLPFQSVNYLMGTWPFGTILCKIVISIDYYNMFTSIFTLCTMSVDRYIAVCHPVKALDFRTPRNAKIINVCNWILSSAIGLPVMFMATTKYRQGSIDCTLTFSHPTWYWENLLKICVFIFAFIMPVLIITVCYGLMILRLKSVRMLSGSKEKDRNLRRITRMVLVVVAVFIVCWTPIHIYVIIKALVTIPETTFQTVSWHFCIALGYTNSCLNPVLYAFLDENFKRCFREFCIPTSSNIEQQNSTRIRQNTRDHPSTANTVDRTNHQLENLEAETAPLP

## CN1CCC2CCc3ccncc3C21 (stereo not given)
[1]
  Ki: Not Active
Mus musculus [2]
  Activity: Active

## CN1CCC[C@H]1c1cccnc1 [NICOTINE]
Mus musculus [3]
  ED50: 12 µg/mouse
Mus musculus [4]
  ED50: 0.5 mg/kg
Mus musculus [5]
  ED50: 1.5 mg/kg

## NC1CCCc2ccncc21 (stereo not given)
[6]
  Ki: > 10 µM
Mus musculus [7]
  MPE: 10%
Mus musculus [8]
  MPE: 1%

## CNC1CCCc2ccncc21 (stereo not given)
Mus musculus [3]
  ED50: 13 µg/mouse
[6]
  Ki: > 10 µM
Mus musculus [7]
  MPE: 2%
Mus musculus [8]
  MPE: 0%

## COc1cc2c(cn1)C1NCCC1CC2 (stereo not given)
[1]
  Ki: Not Active
Mus musculus [2]
  Activity: Active

## CCCN(C)C1CCCc2ccncc21 (stereo not given)
[6]
  Ki: > 10 µM

## CN(C)C1CCCc2ccncc21 (stereo not given)
Mus musculus [9]
  MPE: 8%
Mus musculus [4]
  ED50: 3.9 mg/kg
[6]
  Ki: 0.33 µM
Mus musculus [8]
  MPE: 2%

## CCN(C)C1CCCc2ccncc21.O=C(O)/C=C\C(=O)O.O=C(O)/C=C\C(=O)O (stereo not given)
[10]
  Ki: > 10 µM
[11]
  Ki: > 10 µM
Mu-type opioid receptor
  Ki: > 10 µM
D(2) dopamine receptor
  Ki: > 10 µM
[12]
  Ki: > 10 µM
[13]
  Activity: Not Active
[14]
  Ki: > 10 µM
Mus musculus [3]
  ED50: 12 µg/mouse
[15]
  Activity: inactive
[16]
  Ki: > 10 µM
D(4) dopamine receptor
  Ki: > 10 µM
[17]
  Ki: > 10 µM
[18]
  Ki: > 10 µM
[19]
  Ki: > 10 µM
[20]
  Ki: > 10 µM
[21]
  Ki: > 10 µM
[22]
  Ki: > 10 µM
[23]
  Ki: > 10 µM
[24]
  Ki: > 10 µM
D(3) dopamine receptor
  Ki: > 10 µM
D(1B) dopamine receptor
  Ki: > 10 µM
[25]
  Ki: > 10 µM
[26]
  Ki: > 10 µM
[27]
  Ki: > 10 µM
Mus musculus [4]
  ED50: 0.2 mg/kg
[6]
  Ki: 0.93 µM
Histamine H1 receptor
  Ki: > 10 µM
Histamine H2 receptor
  Ki: > 10 µM
[28]
  Activity: inactive
Adenosine receptor A3
  Ki: > 10 µM
Adenosine A2 receptor
  Ki: > 10 µM
Mus musculus [5]
  ED50: 0.6 mg/kg
[29]
  Activity: inactive
[30]
  Activity: inactive
[31]
  Ki: > 10 µM
Translocator protein
  Ki: > 10 µM
Adenosine receptor A1
  Ki: > 10 µM
D(1A) dopamine receptor
  Ki: > 10 µM
[32]
  Ki: > 10 µM
[33]
  Ki: > 10 µM
[34]
  Activity: inactive

## CCCNC1CCCc2ccncc21 (stereo not given)
[6]
  Ki: > 10 µM

## c1cc2c(cn1)C(N1CCCC1)CCC2 (stereo not given)
Mus musculus [9]
  MPE: 6%
[6]
  Ki: > 10 µM
Mus musculus [7]
  MPE: 11%
Mus musculus [8]
  MPE: 2%
